{"source": "patent US20030082752A1", "about": "“Enzymatic process for producing GDP-alpha-D-mannose, a GDP mannose pyrophosphorylase and phosphomannomutase suitable for that process, the extraction of the said enzymes, and an enzyme test” (priority 1995, published 2003)", "molecules": {"B1": {"name": "Pseudomonas aeruginosa (Shinabarger et al 1991): Bifunctional GDP-Man-PP from Pseudomonas aeruginosa with phosphomannose isomerase and pyrophosphorylase activity (protein, UniProt P07874 1-481, looked up)", "Alginate biosynthesis protein …": "MIPVILSGGSGSRLWPLSRKQYPKQFLALTGDDTLFQQTIKRLAFDGMQAPLLVCNKEHRFIVQEQLEAQNLASQAILLEPFGRNTAPAVAIAAMKLVAEGRDELLLILPADHVIEDQRAFQQALALATNAAEKGEMVLFGIPASRPETGYGYIRASADAQLPEGVSRVQSFVEKPDEARAREFVAAGGYYWNSGMFLFRASRYLEELKKHDADIYDTCLLALERSQHDGDLVNIDAATFECCPDNSIDYAVMEKTSRACVVPLSAGWNDVGSWSSIWDVHAKDANGNVTKGDVLVHDSHNCLVHGNGKLVSVIGLEDIVVVETKDAMMIAHKDRVQDVKHVVKDLDAQGRSETQNHCEVYRPWGSYDSVDMGGRFQVKHITVKPGARLSLQMHHHRAEHWIVVSGTAQVTCDDKTFLLTENQSTYIPIASVHRLANPGKIPLEIIEVQSGSYLGEDDIERLEDVYGRTAEPALQVVAGSR"}}, "key": {"[1]": {"test_system": "pyrophosphorylases in rice (Oryza sativa L.) raw extract", "experiment": "NUSSA screening of pyrophosphorylases in rice raw extract", "format": "biochemical", "description": "(§1) The total volume was 200 μL.\n2) Example: Use of NUSSA for screening pyrophoshorylases in two different enzyme sources: b) Rice (Oryza sativa L.)\n(§2) For using the test, the PPIPFK has to be purified. As a simple and easily available enzyme source, potatoes were selected (Solanum tuberosum L.) . The purification was carried out according to the method described by van Schaftingen et al., 1982 in Eur. J. Biochem., Vol. 129, pp. 191-195. The enzyme (PPIPFK) was stored in 25% glycerin at -20° C.\n(§3) Escherichia Coli BL21(DE3)pLysSpERJ-1 was cultured and broken up as described above. The resulting raw homogenate was centrifuged at 10,000 rpm for 2 min, and at 20° C., then used in the enzyme test (21.02 mg/mL). The rice was broken up according to Elling, 1993, German Patent DE 4,221,595 Cl, at 10,000 rpm, 10 min, 20° C., and it was used as a raw extract (4.26 mg/mL) in the enzyme screening. The substrates tested were: […]\n(§4) a) Nucleoside triphosphate: ATP, CTP, GTP, UTP, dTTP, each at 1 mM in the test with glucose-1-phosphate (2.5 mM) b) Nucleoside triphosphate UTP (1 mM)\n(§5) Sugar-1-phosphate, each at 2.5 mM in the test"}, "[2]": {"test_system": "pyrophosphorylases in Escherichia coli BL21(DE3)pLysSpERJ-1 raw extract", "experiment": "NUSSA screening of pyrophosphorylases in E. coli raw extract", "format": "biochemical", "settings": "20 μg/mL raw extract", "description": "as §1\n2) Example: Use of NUSSA for screening pyrophoshorylases in two different enzyme sources: a) Escherichia coli BL21(DE3)pLysSpERJ-1\nas §2, §3, §4, §5"}, "[3]": {"target": "T1, GDP-mannose pyrophosphorylase (Salmonella typhimurium, UniProt P26404)", "T1 construct": "made in house; host or cells: Escherichia coli BL21(DE3)pLysS with pERJ-1 (pT7-6/rfbM)", "T1 sequence (P26404 whole entry)": "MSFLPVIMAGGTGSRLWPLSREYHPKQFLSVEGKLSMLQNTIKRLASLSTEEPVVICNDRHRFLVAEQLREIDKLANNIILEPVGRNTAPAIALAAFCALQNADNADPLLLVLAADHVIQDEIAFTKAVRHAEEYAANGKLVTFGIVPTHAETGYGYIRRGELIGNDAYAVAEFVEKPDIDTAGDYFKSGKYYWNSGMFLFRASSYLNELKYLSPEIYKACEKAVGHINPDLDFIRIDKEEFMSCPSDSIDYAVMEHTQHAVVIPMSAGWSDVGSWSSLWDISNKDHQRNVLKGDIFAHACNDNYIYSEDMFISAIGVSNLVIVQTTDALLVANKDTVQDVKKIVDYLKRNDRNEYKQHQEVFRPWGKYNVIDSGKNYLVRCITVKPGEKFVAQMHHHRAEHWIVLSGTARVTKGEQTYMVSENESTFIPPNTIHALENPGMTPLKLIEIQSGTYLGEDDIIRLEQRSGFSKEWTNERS", "format": "biochemical, Salmonella enterica, group B", "settings": "for kmax value: GTP varied at 0.08 mM M-1-P, M-1-P varied at 2 mM GTP", "description": "(§6) GTP was used at concentrations of 0.01-10 mM (FIG. 7).\nb) Nucleoside triphosphate: GTP\nSugar-1-phosphates: Glucose-1-P, N-acetylglucosamine-1-P-, glucosamine-1-P, galactose-1-P, galactosamine-1-P, N-acetylgalactosamine-1-P, glucuronic acid-1-P, galacturonic acid-1-P, xylose-1-P, mannose-1-P\nas §1"}, "[4]": {"target": "Salmonella enterica group B (formerly Salmonella typhimurium LT2) GDP-mannose pyrophosphorylase (rfb M, EC 2.7.7.13), recombinant from E. coli BL21(DE3)pLysSpER (Salmonella typhimurium, UniProt P26404)", "sequence (P26404 whole entry)": "as above", "description": "as §6, §1"}, "[5]": {"test_system": "Nc1nc2c(ncn2[C@@H]2O[C@H](COP(=O)(O)OP(=O)(O)OP(=O)(O)O)[C@@H](O)[C@H]2O)c(=O)[nH]1", "experiment": "purified protein, by the assay type", "settings": "other: GTP 0.01-10 mM, mannose-1-phosphate constant 0.08 mM, NUSSA, Tris-HCl pH 8", "source_text": "(§7) In the manner described below, it is possible to determine, by the use of the substrates (sugar-1-phosphates or sugar in the case of neuraminic acid) and nucleoside triphosphates any pyrophosphorylase activity which presents an activity in the test mixture of≧0.2 mU/mL.\nThe enzyme test (Nucleotidyl transferase substrate screening assay ‘NUSSA’) is based on the fact that in the nucleotidyl transferase reaction (EC 2.7-7), pyrophosphate is produced with a pyrophosphate-dependent phosphofructokinase (PPiPFK from plants or bacteria EC 2.7.1.90) with fructose-6-phosphate and in the presence of fructose-2,6-diphosphate to make fructose-1,6-diphosphates. This product is cleaved with an aldolase to form dihydroxyacetone phosphate (DHAP) and glycerin-3-phosphate (GAP). From glycerinaldehyde-3-phosphate, dihydroxyacetone phosphate is produced with the triose phosphate isomerase. Finally, dihydroxyacetone phosphate is reduced with glycerin-3-phosphate dehydrogenase to glycerin-3-phosphate (G-3-P) with NADH. 2 mol of NADH are used per mol of pyrophosphate; this consumption can be monitored by photometry. [drawing 3]\nGTP was used at concentrations of 0.01-10 mM (FIG. 7). […]\n(§8) The total volume was 200 μL. The preparations were measured in a Titertek photometer molecular device, Munich, by photometry. […]"}, "[6]": {"test_system": "O=P(O)(O)O[C@H]1O[C@H](CO)[C@@H](O)[C@H](O)[C@@H]1O", "experiment": "purified protein, by the assay type", "settings": "other: mannose-1-phosphate 0.002-0.6 mM, GTP constant 2 mM, NUSSA, Tris-HCl pH 8"}, "[7]": {"target": "Salmonella enterica group B (formerly Salmonella typhimurium LT2) GDP-mannose pyrophosphorylase (rfb M, EC 2.7.7.13), recombinant from E. coli BL21(DE3)pLysSpERJ-1 (Salmonella typhimurium, UniProt P26404)", "sequence (P26404 whole entry)": "as above", "experiment": "biochemical", "source_text": "as §7\nThe enzyme test (Nucleotidyl transferase substrate screening assay ‘NUSSA’) is based on the fact that in the nucleotidyl transferase reaction (EC 2.7-7), pyrophosphate is produced with a pyrophosphate-dependent phosphofructokinase (PPiPFK from plants or bacteria EC 2.7.1.90) with fructose-6-phosphate and in the presence of fructose-2,6-diphosphate to make fructose-1,6-diphosphates. This product is cleaved with an aldolase to form dihydroxyacetone phosphate (DHAP) and glycerin-3-phosphate (GAP). From glycerinaldehyde-3-phosphate, dihydroxyacetone phosphate is produced with the triose phosphate isomerase. Finally, dihydroxyacetone phosphate is reduced with glycerin-3-phosphate dehydrogenase to glycerin-3-phosphate (G-3-P) with NADH. 2 mol of NADH are used per mol of pyrophosphate; this consumption can be monitored by photometry.\n3) Influence of GDP-mannose on the synthesis\nThe concentration of GTP was varied between 0.08mM and 6 mm.\nThe GDP-mannose was used at 0μM, 50 μM, and 100 μM in the test. […]\nas §8"}, "[8]": {"settings": "literature, cited from earlier work"}, "[9]": {"settings": "α-D-sugar-1-phosphate 2.5 mM with UTP 1 mM"}, "[10]": {"settings": "NTP 1 mM with α-D-glucose-1-phosphate 2.5 mM"}, "[11]": {"settings": "α-D-sugar-1-phosphate 2.5 mM with GTP 1 mM"}, "[12]": {"settings": "NTP 1 mM with α-D-glucose-1-phosphate 2.5 mM, 1.06 μg/mL-0.14 mg/mL raw extract"}}, "note": "Like-named read-outs stand apart in the source and are kept apart here.", "data": [{"molecule": "N[C@H]1[C@@H](OP(=O)(O)O)O[C@H](CO)[C@H](O)[C@@H]1O", "note": "[α-D-Galactosamin-1-P]", "values": [{"measurement": "Specific activity of pyrophosphorylases, rice", "setting": "[1]; [9]", "value": 0.25, "unit": "mU/mg"}]}, {"molecule": "Nc1ccn([C@@H]2O[C@H](COP(=O)(O)OP(=O)(O)OP(=O)(O)O)[C@@H](O)[C@H]2O)c(=O)n1", "note": "[CTP]", "values": [{"measurement": "Specific activity of pyrophosphorylases, E. coli", "setting": "[2]; [10]", "value": 0.75, "unit": "mU/mg"}]}, {"molecule": "O=P(O)(O)O[C@H]1O[C@H](CO)[C@@H](O)[C@H](O)[C@@H]1O", "note": "[M-1-P, mannose-1-phosphate]", "values": [{"measurement": "kmax value", "setting": "[3]", "value": 1.8, "unit": "U/mg"}, {"measurement": "Specific activity of pyrophosphorylases, E. coli", "setting": "[2]; [11]", "value": 3.41, "unit": "mU/mg"}, {"measurement": "Specific activity of pyrophosphorylases, rice", "setting": "[1]; [11]", "value": 1.51, "unit": "mU/mg"}, {"measurement": "kmax value (M-1-P)", "setting": "[4]; vmax, mannose-1-phosphate 0.002-0.6 mM, GTP constant 2 mM, NUSSA, Tris-HCl pH 8", "value": 1.8, "unit": "U/mg"}]}, {"molecule": "N[C@H]1[C@H](OP(=O)(O)O)O[C@H](CO)[C@@H](O)[C@@H]1O", "note": "[α-D-Glucosamin-1-P, α-D-Glucosamine-1-P]", "values": [{"measurement": "Specific activity of pyrophosphorylases, E. coli", "setting": "[2]; [9]", "value": 2.75, "unit": "mU/mg"}]}, {"molecule": "CC(=O)N[C@H]1[C@@H](OP(=O)(O)O)O[C@H](CO)[C@@H](O)[C@@H]1O", "note": "[α-D-GlcNAc-1, N-acetylglucosamine-1-P-]", "values": [{"measurement": "Specific activity of pyrophosphorylases, E. coli", "setting": "[2]; [9]", "value": 2.02, "unit": "mU/mg"}, {"measurement": "Specific activity of pyrophosphorylases, rice", "setting": "[1]; [9]", "value": 0.27, "unit": "mU/mg"}]}, {"molecule": "O=P(O)(O)O[C@H]1OC[C@@H](O)[C@H](O)[C@H]1O", "note": "[α-D-Xylose-1-P]", "values": [{"measurement": "Specific activity of pyrophosphorylases, rice", "setting": "[1]; [9]", "value": 0.42, "unit": "mU/mg"}]}, {"molecule": "O=c1ccn([C@@H]2O[C@H](COP(=O)(O)OP(=O)(O)OP(=O)(O)O)[C@@H](O)[C@H]2O)c(=O)[nH]1", "note": "[UTP]", "values": [{"measurement": "Specific activity of pyrophosphorylases, E. coli", "setting": "[2]; [10]", "value": 214.10, "unit": "mU/mg"}, {"measurement": "Specific activity of pyrophosphorylases, rice", "setting": "[1]; [12]", "value": 982.40, "unit": "mU/mg"}]}, {"molecule": "Salmonella enterica group B (formerly Salmonella typhimurium LT2) GDP-mannose pyrophosphorylase (rfb M, EC 2.7.7.13), recombinant from E. coli BL21(DE3)pLysSpERJ-1 (Salmonella enterica subsp. enterica serovar Typhimurium str. LT2)", "values": [{"measurement": "Km", "setting": "[5]", "value": 0.2, "unit": "mM mM"}, {"measurement": "Km", "setting": "[6]", "value": 0.01, "unit": "mm mm"}]}, {"molecule": "O=C(O)[C@H]1O[C@H](OP(=O)(O)O)[C@H](O)[C@@H](O)[C@@H]1O", "note": "[α-D-Glucurons{overscore (a)}ure-1-P, α-D-Glucuronic acid-1-P]", "values": [{"measurement": "Specific activity of pyrophosphorylases, E. coli", "setting": "[2]; [9]", "value": 4.72, "unit": "mU/mg"}, {"measurement": "Specific activity of pyrophosphorylases, rice", "setting": "[1]; [9]", "value": 14.27, "unit": "mU/mg"}]}, {"molecule": "Nc1nc2c(ncn2[C@@H]2O[C@H](COP(=O)(O)OP(=O)(O)OP(=O)(O)O)[C@@H](O)[C@H]2O)c(=O)[nH]1", "note": "[GTP]", "values": [{"measurement": "kmax value", "setting": "[3]", "value": 2.4, "unit": "U/mg"}, {"measurement": "kmax value (GTP)", "setting": "[4]; pH 8", "value": 2.4, "unit": "U/mg"}]}, {"molecule": "Nc1ncnc2c1ncn2[C@@H]1O[C@H](COP(=O)(O)OP(=O)(O)OP(=O)(O)O)[C@@H](O)[C@H]1O", "note": "[ATP]", "values": [{"measurement": "Specific activity of pyrophosphorylases, E. coli", "setting": "[2]; [10]", "value": 2.76, "unit": "mU/mg"}]}, {"molecule": "O=P(O)(O)O[C@H]1O[C@H](CO)[C@H](O)[C@H](O)[C@H]1O", "note": "[α-D-Galactose-1-P]", "values": [{"measurement": "Specific activity of pyrophosphorylases, E. coli", "setting": "[2]; [9]", "value": 1, "unit": "mU/mg"}, {"measurement": "Specific activity of pyrophosphorylases, rice", "setting": "[1]; [9]", "value": 10.41, "unit": "mU/mg"}]}, {"molecule": "O=C(O)[C@H]1O[C@H](OP(=O)(O)O)[C@H](O)[C@@H](O)[C@H]1O", "note": "[α-D-Galacrurons{overscore (a)}ure-1-P, α-D-Galacturonic acid-1-P]", "values": [{"measurement": "Specific activity of pyrophosphorylases, E. coli", "setting": "[2]; [9]", "value": 3.66, "unit": "mU/mg"}, {"measurement": "Specific activity of pyrophosphorylases, rice", "setting": "[1]; [9]", "value": 2.94, "unit": "mU/mg"}]}, {"molecule": "Nc1nc2c(ncn2[C@@H]2O[C@H](COP(=O)(O)OP(=O)(O)O[C@H]3O[C@H](CO)[C@@H](O)[C@H](O)[C@@H]3O)[C@@H](O)[C@H]2O)c(=O)[nH]1", "note": "[GDP-mannose, GDP-alpha-D-mannose]", "values": [{"measurement": "type of inhibition with respect to M-1-P", "setting": "[3]; GTP constant 2 mM, M-1-P 0.003-0.3 mM", "value": "noncompetitive inhibition"}, {"measurement": "type of inhibition with respect to GTP", "setting": "[3]; M-1-P constant 0.08 mM, GTP 0.08-6 mM", "value": "competitive inhibition"}, {"measurement": "Ki", "setting": "[7]", "value": 14.9, "unit": "µM"}, {"measurement": "Ki", "setting": "[7]; Ki value, noncompetitive inhibition with respect to M-1-P, mannose-1-phosphate 0.003-0.3 mM, GTP constant 2 mM, 5.67 μg/mL enzyme", "value": 118, "unit": "µM"}]}, {"molecule": "Cc1cn([C@H]2C[C@H](O)[C@@H](COP(=O)(O)OP(=O)(O)OP(=O)(O)O)O2)c(=O)[nH]c1=O", "note": "[dTTP]", "values": [{"measurement": "Specific activity of pyrophosphorylases, E. coli", "setting": "[2]; [10]", "value": 10.32, "unit": "mU/mg"}, {"measurement": "Specific activity of pyrophosphorylases, rice", "setting": "[1]; [12]", "value": 5.98, "unit": "mU/mg"}]}, {"molecule": "CC(=O)N[C@H]1[C@@H](OP(=O)(O)O)O[C@H](CO)[C@H](O)[C@@H]1O", "note": "[α-D-GalNAc-1-P, N-acetylgalactosamine-1-P]", "values": [{"measurement": "Specific activity of pyrophosphorylases, rice", "setting": "[1]; [9]", "value": 0.18, "unit": "mU/mg"}]}, {"molecule": "B1", "values": [{"measurement": "Specific activity after purification", "setting": "[8]; after purification", "value": 6.12, "unit": "U/mg Protein"}, {"measurement": "Specific activities Raw extract", "setting": "[8]; raw extract", "value": 0.397, "unit": "U/mg Protein"}]}]}
